Data on four molecules can be found in patent publication US20190185518A9, “WARHEAD-CONTAINING PEPTIDOMIMETIC MACROCYCLES AS MODULATORS OF BFL-1” (AILERON Therapeutics, Inc., priority 2017, published 2019).

The term EC50 denotes the concentration at which the effect is half-maximal. The IC50 is the concentration that inhibits the measured activity by half. Low readings indicate inhibition by little substance, high ones a need for much substance. As usually defined, the Ki is the dissociation constant of the complex between target and ligand, obtained from inhibition or displacement.

The test system of series [1] is MCL-1 driven Raji cells. Nature of the series: cells. The conditions noted are these: Homo sapiens, read-out: EC50 (anti-proliferative effects).
In series [2] the test system is ABT-199 resistant Burkitt lymphoma Raji cells. Nature of the series: WST-1 anti-proliferative activity in Raji cells. Type of series: cell-based, Human. The settings on record: for IC50: TABLE 9, Raji cell proliferation. From the text:
WST-1 is a cell proliferation reagent that is used in colorimetric assays designed to measure the relative proliferation rates of cells in culture. The assay is based on the conversion of the tetrazolium salt WST-1 into a colored dye by mitochondrial dehydrogenase enzymes. The soluble salt is released into the media. Within a given time period, the reaction produces a color change that is directly proportional to the amount of mitochondrial dehydrogenase in a culture. The WST-1 assay measures the net metabolic activity of cells.
Background: Tetrazolium dyes change colour on reduction, which living cells bring about.

Series [3] concerns the target T1, Mcl-1 (Homo sapiens, UniProt Q07820). The conditions noted are these: cited from earlier work.
For series [4], the system named is Mcl-1, Bcl-xL, Bcl-2. The conditions noted are these: TABLE 8; † reported in the literature; cited from earlier work.
In series [5] the target is T2, MCL-1/BAK protein-protein interaction (Homo sapiens, UniProt Q07820).
T2 construct: host or cells: Raji
T2 sequence (Q07820 whole entry): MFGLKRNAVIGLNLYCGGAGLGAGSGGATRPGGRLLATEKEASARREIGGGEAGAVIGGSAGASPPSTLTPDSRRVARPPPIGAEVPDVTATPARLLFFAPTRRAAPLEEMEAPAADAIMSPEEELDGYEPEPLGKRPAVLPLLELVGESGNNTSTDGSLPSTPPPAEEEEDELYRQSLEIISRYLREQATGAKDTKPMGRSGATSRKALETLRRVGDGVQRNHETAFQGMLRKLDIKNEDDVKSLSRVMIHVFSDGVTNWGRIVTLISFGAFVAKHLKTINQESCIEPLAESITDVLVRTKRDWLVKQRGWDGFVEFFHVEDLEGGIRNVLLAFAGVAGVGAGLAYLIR
Nature of the series: MCL-1 displacement study (BAK FRET signal). The conditions noted are these: 5 μM or 10 μM. Type of series: cell-based. As to the method:
BIM peptidomimetic macrocycles were tested for displacement of MCL-1 from a BAK fluorescence resonance energy transfer (FRET) peptide.
FIG. 19 compares normalized FRET signals of samples to determine the samples' effects in disrupting MCL-1/BAK protein-protein interactions.

Series [6] deals with Mcl-1, Bcl-xL, Bcl-2. Nature of the series: BCL-2 family selectivity profile. Type of series: binding. The settings on record: TABLE 8. An excerpt:
The binding spectrum of stapled BIM BH3 peptides were tuned for BCL-2 family selectivity. […] ABT-199 is venetoclax, and † represents values reported in the literature.

For series [7], the system named is SK-MEL-28 melanoma cells. Nature of the series: Caspase-3/7 activation (Caspase-Glo 3/7), SK-MEL-28. The series is classed as cell-based. The settings on record: SK-MEL-28; control BIM SAHBA1 40 μM, 5% serum. As to the method: (§1) Cancer cells were cultured using a standard culture medium containing 10% fetal bovine serum (FBS) and penicillin-streptomycin (A375P: DMEM; SK-MEL-2, SK-MEL-28: EMEM). Cells were plated in 96-well plates (5×10^3 cells per well) and, after overnight incubation, treated with the indicated concentrations of Stapled Peptides in the corresponding medium supplemented with 5% FBS for the indicated durations. Cell viability and caspase-3/7 activation was measured using CellTiter-Glo and Caspase-Glo 3/7 chemiluminescence reagents (Promega), respectively. Luminescence was detected by a microplate reader (Spectramax M5, Molecular Devices).

Series [8] deals with SK-MEL-2 melanoma cells. Nature of the series: Cell viability (CellTiter-Glo), SK-MEL-2. Type of series: cell-based. The settings on record: SK-MEL-2; 40 μM, 5% serum. As to the method:
as §1
A general note: In ATP-based viability assays light output follows the ATP content of the culture.

The subject of series [9] is BAX-BAK^−/− double knock outs (DKO) MEF cells. Nature of the series: On-mechanism cytotoxic activity, BAX-BAK-/- double knock out MEF cells. The series is classed as cell-based. The conditions noted are these: 5% serum.
Series [10] deals with released LDH (damaged cells). Nature of the series: Lactate dehydrogenase cytotoxicity colorimetric assay. The series is classed as cell-based. The settings on record: 5% serum. From the text: When cell membranes are compromised or damaged, lactate dehydrogenase (LDH), a soluble yet stable enzyme found inside every living cell, is released into the surrounding extracellular space. The presence of LDH in the culture medium can be used as a cell death marker. The relative amounts of live and dead cells within the medium can then be quantified by measuring the amount of released LDH using a colorimetric or fluorimetric LDH cytotoxicity assay. When using an LDH colorimetric assay, the amount of LDH released in the surrounding environment is measured with an enzymatic reaction that converts iodonitrotetrazolium (INT) into red-colored formazan. When LDH is present in the cell culture, the LDH reduces NAD^+ to NADH and H^+ through the oxidation of lactate to pyruvate. Afterward, the catalyst (diaphorase) then transfers H/H^+ from NADH^+H^+ to the trazolium salt INT to form the red-colored formazan salt. The amount of color produced is measured at 490 nm by standard spectroscopy, and is proportional to the amount of damaged cells in the culture.

The subject of series [11] is MCL-1 driven Raji cells.
In a further series the test system is BAX-BAK^wt/wt MEF cells. Nature of the series: On-mechanism cytotoxic activity, BAX-BAK wt/wt MEF cells. Type of series: cell-based. The settings on record: 5% serum.
The test system of series [12] is A375-P melanoma cells. Nature of the series: Caspase-3/7 activation (Caspase-Glo 3/7), A375-P. Type of series: cell-based. The settings on record: A375-P; control BIM SAHBA1 40 μM, 5% serum. As for the experimental part: as §1
The test system of series [13] is A375-P melanoma cells. Nature of the series: Cell viability (CellTiter-Glo), A375-P. Type of series: cell-based. The conditions noted are these: A375-P; 40 μM, 5% serum. As to the method:
as §1

Series [14] has as its target T1, Mcl-1. Nature of the series: Ki determination for Mcl-1 (BCL-2 family binding spectrum). Summed up:
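Competitive fluorescence polarization assay in which compounds displace a fluoresceinated peptidomimetic macrocycle tracer from Mcl-1. Affinity constants were obtained by nonlinear regression.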

Series [15] relates to SK-MEL-28 melanoma cells. Nature of the series: Cell viability (CellTiter-Glo), SK-MEL-28. Type of series: cell-based. The settings on record: SK-MEL-28; 40 μM, 5% serum. As for the experimental part: as §1
For series [16], the system named is SK-MEL-2 melanoma cells. Nature of the series: Caspase-3/7 activation (Caspase-Glo 3/7), SK-MEL-2. The series is classed as cell-based. The settings on record: SK-MEL-2; control BIM SAHBA1 40 μM, 5% serum. As for the experimental part: as §1
In another series the target is Bcl-xL (Homo sapiens, UniProt Q07817). Nature of the series: Ki determination for Bcl-xL (BCL-2 family binding spectrum). Summed up:
(§2)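 Competitive fluorescence polarization: compounds (1 nM–1 mM) with 25 nM fluoresceinated peptidomimetic macrocycle and 50 nM protein in 140 mM NaCl, 50 mM Tris-HCl pH 7.4, 30 min at room temperature. Constants from nonlinear regression.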

The subject of another series is Human Raji cells. Type of series: cell-based. The conditions noted are these: Raji Cell Viability, 48 h, 5% serum. As for the experimental part:
BIM peptidomimetic macrocycles were tested for cell killing at various concentrations. Human Raji cells were treated with increasing doses of peptidomimetic macrocycles corresponding to Aileron peptide A (FIGS. 1 and 2), Aileron peptide B (FIGS. 1-3), and Aileron peptide C (FIGS. 3 and 4). An […] was calculated for each dose of the peptidomimetic macrocycle from a non-linear fit of response vs dose (GraphPad Prism).

The next series deals with Bcl-2 (Homo sapiens, UniProt P10415). Nature of the series: Ki determination for Bcl-2 (BCL-2 family binding spectrum). The settings on record: read-out: Ki BCL-2. In a few lines:
as §2

Like-named read-outs stand apart in the source and are kept apart here. Positions of bridges follow the written chain, without caps; N, C: chain ends. Non-standard residues stand in square brackets, D forms with d. Residues, ends and D or L forms follow the SMILES beside them. Phe(4-F) = N[C@@H](Cc1ccc(F)cc1)C(=O)O; R8 = C=CCCCCCC[C@@](C)(N)C(=O)O; hLeu = CC(C)CC[C@H](N)C(=O)O; S5 = C=CCCC[C@](C)(N)C(=O)O Where only a bound is given, the exact number is not on record here.

T1 sequence (Q07820 whole entry, species assumed): as the sequence (Q07820 whole entry) above
Chain of Bcl-xL (Q07817 whole entry, species assumed): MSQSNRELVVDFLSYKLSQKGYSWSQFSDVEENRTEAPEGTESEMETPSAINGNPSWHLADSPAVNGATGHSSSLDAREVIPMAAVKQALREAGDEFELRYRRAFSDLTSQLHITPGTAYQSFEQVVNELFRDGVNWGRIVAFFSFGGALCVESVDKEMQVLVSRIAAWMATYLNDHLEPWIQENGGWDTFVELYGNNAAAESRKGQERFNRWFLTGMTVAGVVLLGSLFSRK
Chain of Bcl-2 (P10415 whole entry, species assumed): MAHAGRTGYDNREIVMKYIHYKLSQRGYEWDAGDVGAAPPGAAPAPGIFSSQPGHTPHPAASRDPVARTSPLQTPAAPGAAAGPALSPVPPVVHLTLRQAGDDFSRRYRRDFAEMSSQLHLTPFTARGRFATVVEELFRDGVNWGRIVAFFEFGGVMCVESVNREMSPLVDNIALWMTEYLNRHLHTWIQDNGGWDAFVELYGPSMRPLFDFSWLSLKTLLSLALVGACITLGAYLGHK

Consider `CC1(C)CCC(CN2CCN(c3ccc(C(=O)NS(=O)(=O)c4ccc(NCC5CCOCC5)c([N+](=O)[O-])c4)c(Oc4cnc5[nH]ccc5c4)c3)CC2)=C(c2ccc(Cl)cc2)C1` [ABT-199, venetoclax], for which the EC50 with MCL-1 driven Raji cells [1] is 3700 to 4900 nM. 3100 nM corresponded to half-maximal inhibition in series [2] (Homo sapiens) (IC50). Besides, the inhibitory constant (Ki) at Mcl-1 [3] (TABLE 6, † values reported in the literature) is more than 444 nM; at Mcl-1 [3] (TABLE 8, † reported in the literature), more than 444 nM.

`CC1(C)CCC(c2ccc(Cl)cc2)=C(CN2CCN(c3ccc(C(=O)NS(=O)(=O)c4ccc(N[C@H](CCN5CCOCC5)CSc5ccccc5)c(S(=O)(=O)C(F)(F)F)c4)cc3)CC2)C1` [ABT-263, navitoclax, reference compound]: the Profile result in the series on Mcl-1, Bcl-xL, Bcl-2 [4] is “Bcl-xL/Bcl-2 selective”; in the series with Mcl-1, Bcl-xL, Bcl-2 [6], “Bcl-xL/Bcl-2 selective”. The “disrupting the MCL-1/BAK protein-protein interaction (normalized FRET signal)” value in [5] is “did not disrupt”.

As to `CC[C@H](C)[C@H](NC(C)=O)C(=O)N[C@@H](Cc1c[nH]c2ccccc12)C(=O)N[C@H](C(=O)N[C@@H](C)C(=O)N[C@@H](CCC(N)=O)C(=O)N[C@@H](C)C(=O)N[C@@H](CC(C)C)C(=O)N[C@@H](CCCNC(=N)N)C(=O)N[C@]1(C)CCCCCCC=CCCC[C@@](C)(C(=O)N[C@@H](Cc2ccc(O)cc2)C(=O)N[C@@H](Cc2ccc(F)cc2)C(=O)N[C@@H](C)C(N)=O)NC(=O)[C@H](CC(N)=O)NC(=O)[C@H](Cc2ccccc2)NC(=O)[C@H](C)NC(=O)[C@H](CC(=O)O)NC(=O)CNC(=O)[C@H](CCC(C)C)NC1=O)[C@@H](C)CC` [Peptide #16] (Ac-IWIAQALR[R8][hLeu]GDAFN[S5]Y[Phe(4-F)]A-NH2; staple 9-16), the “Relative caspase-3/7 activation” value with SK-MEL-28 melanoma cells [7], in the series on A375-P melanoma cells [12] and in the series with SK-MEL-2 melanoma cells [16] was “higher levels of caspase-3/7 activation than the BIM SAHBA1 control” in each case. The “% cell viability” value in the series on SK-MEL-2 melanoma cells [8], in the series on A375-P melanoma cells [13] and in the series with SK-MEL-28 melanoma cells [15] was “decreased the % viability of the cells” throughout. For the same molecule, the on-mechanism cytotoxic activity result in series [9] is recorded as “did not exhibit on-mechanism cytotoxic activity”; in the series on BAX-BAK^wt/wt MEF cells it was “exhibited on-mechanism cytotoxic activity”. In addition, the “off-target cytotoxicity in the LDH assay” value in series [10] was “No off-target cytotoxicity was observed”. In the series with MCL-1 driven Raji cells [11], this molecule registered an EC50 of 1200 to 1600 nM. The “anti-proliferative effects in combination” value in the series with MCL-1 driven Raji cells [11] (Raji cells, combined with fixed doses of the other agent (peptide #16 0.95-3.8 μM or ABT-199 1.9-3.8 μM)) is given as “enhanced”. Besides, the “Raji cell proliferation (fraction of control)” value in the series with MCL-1 driven Raji cells [11] (increasing doses, combination study) is “decreased”. The Profile entry with Mcl-1, Bcl-xL, Bcl-2 [6] is given as “Pan-selective”. Also, in [2] (Raji cell line), the “potency relative to BIM SAHBA1” value is listed as “ten times more potent than BIM SAHBA1”. Further, it took 2000 nM to reach half-maximal inhibition in [2] (IC50). Moreover, the Ki amounted to 27 nM at Mcl-1 [14] (TABLE 8, read-out: Mcl-1 Ki) and 13 nM on Bcl-xL (TABLE 8, read-out: Bcl-xL Ki).

`CC[C@H](C)[C@H](NC(C)=O)C(=O)N[C@@H](Cc1c[nH]c2ccccc12)C(=O)N[C@H](C(=O)N[C@@H](C)C(=O)N[C@@H](CCC(N)=O)C(=O)N[C@@H](C)C(=O)N[C@@H](CC(C)C)C(=O)N[C@@H](CCCNC(=N)N)C(=O)N[C@]1(C)CCCCCCC=CCCC[C@@](C)(C(=O)N[C@@H](Cc2ccc(O)cc2)C(=O)N[C@@H](Cc2ccc(O)cc2)C(=O)N[C@@H](C)C(N)=O)NC(=O)[C@H](CC(N)=O)NC(=O)[C@H](Cc2ccccc2)NC(=O)[C@H](CCC(=O)O)NC(=O)[C@H](CC(=O)O)NC(=O)CNC(=O)[C@H]([C@@H](C)CC)NC1=O)[C@@H](C)CC` [compound 1649] (Ac-IWIAQALR[R8]IGDEFN[S5]YYA-NH2; staple 9-16): the half-maximal effective concentration (EC50) in the series with Human Raji cells is more than 40 µM. Further, the Ki at Mcl-1 [14] (read-out: Ki MCL-1) turned out to be 1.8 nM; at Bcl-xL (read-out: Ki BCL-XL) it was 1.4 nM; on Bcl-2, 3.2 nM.
